This is an account of results in ChEMBL document CHEMBL1131924, “Synthesis and biological evaluation of 1alpha,24-dihydroxy-25-nitrovitamin D3” (1999).

Assay [1] deals with T1, Vitamin D3 receptor (Gallus gallus) (UniProt O42392).
T1 sequence (whole entry): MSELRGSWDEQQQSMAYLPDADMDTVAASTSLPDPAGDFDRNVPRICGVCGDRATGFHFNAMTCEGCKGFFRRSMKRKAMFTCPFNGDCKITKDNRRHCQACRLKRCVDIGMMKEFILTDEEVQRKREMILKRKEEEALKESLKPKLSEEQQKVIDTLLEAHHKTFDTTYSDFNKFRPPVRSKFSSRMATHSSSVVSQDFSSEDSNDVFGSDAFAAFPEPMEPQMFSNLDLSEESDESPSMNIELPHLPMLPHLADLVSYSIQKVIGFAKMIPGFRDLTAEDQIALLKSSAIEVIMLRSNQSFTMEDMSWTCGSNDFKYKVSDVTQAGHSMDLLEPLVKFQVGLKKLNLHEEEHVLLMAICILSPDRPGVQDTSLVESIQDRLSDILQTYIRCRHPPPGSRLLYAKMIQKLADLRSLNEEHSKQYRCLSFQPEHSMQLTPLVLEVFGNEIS
The experiment in a line: Relative binding affinity for chick intestinal Vitamin D3 receptor (VDR).

For another assay, the system named is HL-60. Kind of assay: Cell differentiation activity towards HL-60 cells assessed in terms of 4-nitro-blue tetrazolium (NBT) reactivity. Format: functional, Homo sapiens.

`C=C1/C(=C\C=C2/CCC[C@]3(C)[C@@H]([C@H](C)CC[C@@H](O)C(C)(C)[N+](=O)[O-])CC[C@@H]23)C[C@@H](O)C[C@@H]1O` registered a Binding affinity in assay [1] of 93. Moreover, the Activity with HL-60 was 182.
In turn, `C=C1/C(=C\C=C2/CCC[C@]3(C)[C@@H]([C@H](C)CC[C@@H](O)C(C)C)CC[C@@H]23)C[C@@H](O)C[C@@H]1O` [TACALCITOL] gave a Binding affinity in assay [1] of 131. This compound had an Activity with HL-60 of 182.
Taken in the same sequence, the figures for `C=C1/C(=C\C=C2/CCC[C@]3(C)[C@@H]([C@H](C)CCCC(C)(C)O)CC[C@@H]23)C[C@@H](O)C[C@@H]1O` [CALCITRIOL] were 100 and 100.
The matching figures for `C=C1/C(=C\C=C2/CCC[C@]3(C)[C@@H]([C@H](C)CC[C@H](O)C(C)C)CC[C@@H]23)C[C@@H](O)C[C@@H]1O`: 10 and 18.
Taken in the same sequence, the figures for `C=C1/C(=C\C=C2/CCC[C@]3(C)[C@@H]([C@H](C)CC[C@H](O)C(C)(C)[N+](=O)[O-])CC[C@@H]23)C[C@@H](O)C[C@@H]1O` were 10 and 12.
